Tests used:
Assay in all cases: relative viability (nuclei count vs DMSO), 5 days (fraction); higher = more cells survive
Bortezomib + AZD7762 = compound: CC(C)C[C@H](NC(=O)[C@H](Cc1ccccc1)NC(=O)c1cnccn1)B(O)O [Bortezomib] + NC(=O)Nc1cc(-c2cccc(F)c2)sc1C(=O)N[C@H]1CCCNC1 [AZD7762] (partner 0.2 µM)
Summary of the method: (§1)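 Dosing by pin tool came one day after lung cancer cell lines were seeded in 1536-well plates, using either one drug or a fixed anchor-drug dose plus five library-drug doses (not always all listed) in √10 steps. After 5 days, nuclei were counted on 4× images. Relative viability is treated-well nuclei count divided by vehicle-well nuclei count, and values are medians of duplicate plates.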

Bortezomib + Trametinib = compound: CC(C)C[C@H](NC(=O)[C@H](Cc1ccccc1)NC(=O)c1cnccn1)B(O)O [Bortezomib] + CC(=O)Nc1cccc(-n2c(=O)n(C3CC3)c(=O)c3c(Nc4ccc(I)cc4F)n(C)c(=O)c(C)c32)c1 [Trametinib] (partner 0.02 µM)
Summary of the method: as §1

Bortezomib + Palbociclib = compound: CC(C)C[C@H](NC(=O)[C@H](Cc1ccccc1)NC(=O)c1cnccn1)B(O)O [Bortezomib] + CC(=O)c1c(C)c2cnc(Nc3ccc(N4CCNCC4)cn3)nc2n(C2CCCC2)c1=O [Palbociclib] (partner 0.5 µM)
Summary of the method: as §1

Bortezomib + Decitabine = compound: CC(C)C[C@H](NC(=O)[C@H](Cc1ccccc1)NC(=O)c1cnccn1)B(O)O [Bortezomib] + Nc1ncn([C@H]2C[C@H](O)[C@@H](CO)O2)c(=O)n1 [Decitabine] (partner 2 µM)
Summary of the method: as §1

Cell Line | relative viability (Bortezomib + AZD7762; first compound 0.0002 µM) | relative viability (Bortezomib + AZD7762; first compound 0.000632 µM) | relative viability (Bortezomib + AZD7762; first compound 0.002 µM) | relative viability (Bortezomib + AZD7762; first compound 0.006325 µM) | relative viability (Bortezomib + AZD7762; first compound 0.02 µM) | relative viability (Bortezomib + Trametinib; first compound 0.0002 µM) | relative viability (Bortezomib + Trametinib; first compound 0.000632 µM) | relative viability (Bortezomib + Trametinib; first compound 0.002 µM) | relative viability (Bortezomib + Trametinib; first compound 0.006325 µM) | relative viability (Bortezomib + Trametinib; first compound 0.02 µM) | relative viability (Bortezomib + Palbociclib; first compound 0.0002 µM) | relative viability (Bortezomib + Palbociclib; first compound 0.000632 µM) | relative viability (Bortezomib + Palbociclib; first compound 0.002 µM) | relative viability (Bortezomib + Palbociclib; first compound 0.006325 µM) | relative viability (Bortezomib + Palbociclib; first compound 0.02 µM) | relative viability (Bortezomib + Decitabine; first compound 0.0002 µM) | relative viability (Bortezomib + Decitabine; first compound 0.000632 µM) | relative viability (Bortezomib + Decitabine; first compound 0.002 µM) | relative viability (Bortezomib + Decitabine; first compound 0.006325 µM) | relative viability (Bortezomib + Decitabine; first compound 0.02 µM)
NCI-H460 | 0.55 | 0.706 | 0.724 | 0.672 | 0.044 | 0.126 | 0.157 | 0.202 | 0.0768 | 0.0189 | 0.181 | 0.283 | 0.155 | 0.0455 | 0.0161 | 0.479 | 0.471 | 0.56 | 0.296 | 0.0215
NCI-H1793 | 0.512 | – | 0.394 | 0.803 | 0.0834 | 0.445 | – | 0.457 | 0.414 | 0.132 | 0.336 | – | 0.375 | 0.205 | 0.143 | 0.492 | – | 0.507 | 0.334 | 0.146
NCI-H727 | 0.631 | 0.611 | 0.688 | 0.698 | 0.595 | 0.367 | 0.43 | 0.363 | 0.413 | 0.266 | 0.751 | 0.603 | 0.623 | 0.684 | 0.23 | 0.993 | 1.09 | 0.875 | 0.95 | 0.834
NCI-H838 | 0.878 | 0.925 | 0.9 | 0.682 | 0.622 | 0.479 | 0.677 | 0.549 | 0.106 | 0.0935 | 0.211 | 0.23 | 0.191 | 0.136 | 0.103 | 0.473 | 0.467 | 0.459 | 0.184 | 0.138
NCI-H1792 | 0.657 | 0.693 | 0.602 | 0.344 | 0.0353 | 0.506 | 0.413 | 0.446 | 0.292 | 0.0651 | 0.628 | 0.593 | 0.494 | 0.637 | 0.375 | 0.473 | 0.581 | 0.664 | 0.286 | 0.0625
H3255 | 0.867 | – | 0.655 | 0.517 | 0.328 | 0.593 | 0.69 | 0.331 | 0.239 | 0.274 | 0.322 | 0.335 | 0.285 | 0.256 | 0.243 | 0.587 | 0.583 | 0.316 | 0.192 | 0.204
EPLC-272H | 0.188 | 0.163 | 1.2 | 0.153 | 0.0636 | 0.324 | 0.279 | 0.233 | 0.073 | 0.0585 | 0.307 | 0.29 | 0.304 | 0.111 | 0.0584 | 0.378 | 0.348 | 0.321 | 0.0848 | 0.065
NCI-H647 | 0.405 | 0.447 | 0.419 | 0.0227 | 0.0188 | 0.471 | 0.404 | 0.542 | 0.0211 | 0.0513 | 0.385 | 0.251 | 0.426 | 0.0189 | 0.0229 | 0.483 | 0.404 | 0.38 | 0.0562 | 0.0417
SW 900 | 0.572 | 0.627 | 0.188 | 0.178 | 0.158 | 0.587 | 0.578 | 0.167 | 0.155 | 0.145 | 0.504 | 0.37 | 0.203 | 0.2 | 0.195 | 0.347 | 0.423 | 0.227 | 0.206 | 0.284
LXF-289 | 1.12 | 1.03 | 1.19 | 0.11 | 0.0936 | 0.699 | 0.672 | 0.768 | 0.113 | 0.101 | 0.573 | 0.58 | 0.633 | 0.102 | 0.0908 | 0.364 | 0.384 | 0.394 | 0.196 | 0.112
NCI-H1755 | 0.442 | 0.425 | 0.508 | 0.287 | 0.2 | 0.761 | 0.77 | 0.706 | 0.279 | 0.223 | 0.426 | 0.438 | 0.452 | 0.263 | 0.248 | 0.699 | 0.716 | 0.734 | 0.452 | 0.237
HCC-15 | 1.04 | 1.14 | 1.17 | 0.763 | 0.127 | 0.39 | 0.394 | 0.426 | 0.117 | 0.104 | 0.622 | 0.769 | 0.689 | 0.104 | 0.0904 | 0.626 | 0.619 | 0.598 | 0.111 | 0.114
EMC-BAC-2 | 1.09 | 1.04 | 1.04 | 0.573 | 0.436 | 1.02 | 1.01 | 0.803 | 0.341 | 0.307 | 0.524 | 0.484 | 0.466 | 0.285 | 0.205 | 1.07 | 0.987 | 0.828 | 0.559 | 0.196
NCI-H1734 | 0.563 | 0.541 | 0.57 | 0.116 | 0.0989 | 0.647 | 0.7 | 0.685 | 0.161 | 0.0924 | 0.38 | 0.342 | 0.266 | 0.108 | 0.0922 | 0.552 | 0.503 | 0.462 | 0.12 | 0.0968
NCI-H1395 | 0.381 | 0.393 | 0.385 | 0.323 | 0.304 | 1.14 | 0.939 | 0.708 | 0.315 | 0.31 | 0.591 | 0.614 | 0.38 | 0.31 | 0.253 | 0.774 | 0.702 | 0.431 | 0.287 | 0.297
HOP-62 | 0.603 | 0.387 | 0.51 | 0.25 | 0.043 | 0.37 | 0.401 | 0.378 | 0.173 | 0.0647 | 0.437 | 0.492 | 0.307 | 0.0611 | 0.0516 | 0.232 | 0.204 | 0.223 | 0.106 | 0.0681
